Assays:
[1] = test system: pathogenic bacteria causing bacterial angular leaf spot in cucumbers; test: In vitro bactericidal activity, bacterial angular leaf spot in cucumbers; assay type: cell-based, pseudomonas; details: read-out: inhibitory rate; for inhibition at 1 ppm: dosage 1 ppm; for inhibition at 5 ppm: dosage 5 ppm
Procedure: (§1) Under aseptic conditions, equal amounts of NB culture medium were added to test tubes, and fixed amounts of the sample solutions were pipetted into the above test tubes in an ascending order of concentrations, respectively. The mixtures were well mixed and added with equal amounts of a bacterial suspension in log phase.
(§2) Each step of the procedure was repeated 4 times. After mixing, the mixture samples were incubated in the dark in a shaking incubator at 25° C. The OD values were measured when the bacteria were in log phase.

[2] = test system: pathogenic bacteria causing bacterial wilt in tobacco; test: whole plant or invertebrate; assay type: cell-based, ralstonia; details: read-out: inhibitory rate
[3] = test system: pathogenic bacteria causing black shank in potatoes; test: In vitro bactericidal activity, black shank in potatoes; assay type: cell-based; details: read-out: inhibitory rate; for inhibition at 1 ppm: dosage 1 ppm; for inhibition at 5 ppm: dosage 5 ppm
Procedure: as §1, §2

[4] = test system: pathogenic bacteria causing stem rot in sweet potatoes; test: In vitro bactericidal activity, stem rot in sweet potatoes; assay type: cell-based, dikia; details: read-out: inhibitory rate; for inhibition at 1 ppm: dosage 1 ppm; for inhibition at 5 ppm: dosage 5 ppm
Procedure: as §1, §2

[5] = test system: pathogenic bacteria causing bacterial blight in rice; test: whole plant or invertebrate; assay type: cell-based, xanthomonas; details: read-out: inhibitory rate
[6] = test system: pathogenic bacteria causing fruit blotch in watermelons; test: In vitro bactericidal activity, fruit blotch in watermelons; assay type: cell-based, acidovorax; details: read-out: inhibitory rate; for inhibition at 1 ppm: dosage 1 ppm; for inhibition at 5 ppm: dosage 5 ppm
Procedure: as §1, §2

[7] = test system: pathogenic bacteria causing black rot in Chinese cabbages; test: In vitro bactericidal activity, black rot in Chinese cabbages; assay type: cell-based, xanthomonas; details: Xanthomonas, read-out: inhibitory rate; for inhibition at 1 ppm: dosage 1 ppm; for inhibition at 5 ppm: dosage 5 ppm
Procedure: as §1, §2

[8] = test system: pathogenic bacteria causing bacterial wilt in cassava; test: organism not typed; assay type: cell-based; details: read-out: inhibitory rate
[9] = test system: pathogenic bacteria causing fire blight in pears; test: In vitro bactericidal activity, fire blight in pears; assay type: cell-based, erwinia; details: Erwinia, read-out: inhibitory rate; for inhibition at 1 ppm: dosage 1 ppm; for inhibition at 5 ppm: dosage 5 ppm
Procedure: as §1, §2

black shank in potatoes = test: Living crops in vivo protective activity, potatoes (root irrigation); details: Solanum tuberosum, read-out: efficacy against black shank in potatoes; for pest or weed control at 5 ppm: dosage 5 ppm; for pest or weed control at 10 ppm: dosage 10 ppm
Procedure: Root irrigation was carried out on the potatoes for tests according to the designed concentration of the agents. The dosage for each plant was 200 mL and was kept consistent (also for the control). The black shank bacteria were inoculated on the second day after the application. The results were investigated according to the disease condition.

cucumber seedlings = test: Safety for plant growth after application; assay type: in vivo; details: dosage 200 ppm
From the text: Taking indoor potted cucumber seedlings as an example, the influence of the compound disclosed herein on growth rate of plant height, chlorophyll content, leaf area, etc. of crops was mainly evaluated.
The results of safety and health-care effect of the compounds of the present disclosure on cucumber seedlings are shown in the following table 1: […]

[10] = test system: bacterial wilt in tobacco; test: whole plant or invertebrate; details: Nicotiana tabacum, read-out: efficacy against bacterial wilt in tobacco
[11] = test system: stem rot in sweet potatoes; test: whole plant or invertebrate; details: read-out: efficacy against stem rot in sweet potatoes
bacterial blight in rice = test: whole plant or invertebrate; details: Oryza sativa, read-out: efficacy against bacterial blight in rice
[12] = test system: fruit blotch in watermelons; test: whole plant or invertebrate; details: read-out: efficacy against fruit blotch in watermelons
[13] = test system: soft rot in Chinese cabbages; test: whole plant or invertebrate; details: 48 h, read-out: efficacy against soft rot in Chinese cabbages

SMILES	inhibition at 1 ppm [1]	inhibition at 5 ppm [1]	inhibition at 5 ppm [2]	inhibition at 5 ppm [3]	inhibition at 5 ppm [4]	inhibition at 5 ppm [5]	inhibition at 5 ppm [6]	inhibition at 5 ppm [7]	inhibition at 5 ppm [8]	inhibition at 5 ppm [9]	pest or weed control at 10 ppm (black shank in potatoes)	safety for plant growth (discoloration, necrosis, wilt, malformation) (cucumber seedlings)	pest or weed control at 5 ppm [10]	pest or weed control at 10 ppm [10]	pest or weed control at 5 ppm [11]	pest or weed control at 10 ppm [11]	pest or weed control at 10 ppm (bacterial blight in rice)	pest or weed control at 5 ppm [12]	pest or weed control at 10 ppm [12]	pest or weed control at 10 ppm [13]	other results
O=C(OCCO)c1cn(C2CC2)c2cc(F)ccc2c1=O [Compound 194]	≥ 80%	≥ 90%	≥ 90%	≥ 90%	≥ 90%	≥ 90%	≥ 90%	≥ 90%	≥ 90%	≥ 90%	≥ 90%	safe for plant growth	≥ 90%	≥ 90%	≥ 90%	≥ 90%	≥ 90%	≥ 90%	≥ 90%	≥ 90%	inhibition at 1 ppm [2]: ≥ 80%; inhibition at 1 ppm [3]: ≥ 80%; inhibition at 1 ppm [4]: ≥ 80%; inhibition at 1 ppm [5]: ≥ 80%; inhibition at 1 ppm [6]: ≥ 80%; inhibition at 1 ppm [7]: ≥ 80%; inhibition at 1 ppm [8]: ≥ 80%; inhibition at 1 ppm [9]: ≥ 80%; pest or weed control at 5 ppm (black shank in potatoes): ≥ 80%; pest or weed control at 5 ppm (bacterial blight in rice): ≥ 80%; pest or weed control at 5 ppm [13]: ≥ 80%
O=C(OCCCO)c1cn(C2CC2)c2ccc(F)cc2c1=O [Compound 18]	≥ 80%	≥ 90%	≥ 90%	≥ 90%	≥ 90%	≥ 90%	≥ 90%	≥ 90%	≥ 90%	≥ 90%	≥ 90%	safe for plant growth	≥ 90%	≥ 90%	≥ 90%	≥ 90%	≥ 90%	≥ 90%	≥ 90%	≥ 90%	inhibition at 1 ppm [2]: ≥ 80%; inhibition at 1 ppm [3]: ≥ 80%; inhibition at 1 ppm [4]: ≥ 80%; inhibition at 1 ppm [5]: ≥ 80%; inhibition at 1 ppm [6]: ≥ 80%; inhibition at 1 ppm [7]: ≥ 80%; inhibition at 1 ppm [8]: ≥ 80%; inhibition at 1 ppm [9]: ≥ 80%; pest or weed control at 5 ppm (black shank in potatoes): ≥ 80%; pest or weed control at 5 ppm (bacterial blight in rice): ≥ 80%; pest or weed control at 5 ppm [13]: ≥ 80%
CSc1cc2c(cc1F)c(=O)c(C(=O)OCCO)cn2C1CC1 [Compound 371]	≥ 90%	≥ 90%	≥ 90%	≥ 90%	≥ 90%	≥ 90%	≥ 90%	≥ 90%	≥ 90%	≥ 90%	≥ 90%	safe for plant growth	≥ 90%	≥ 90%	≥ 90%	≥ 90%	≥ 90%	≥ 90%	≥ 90%	≥ 90%	inhibition at 1 ppm [2]: ≥ 90%; inhibition at 1 ppm [3]: ≥ 90%; inhibition at 1 ppm [4]: ≥ 90%; inhibition at 1 ppm [5]: ≥ 90%; inhibition at 1 ppm [6]: ≥ 90%; inhibition at 1 ppm [7]: ≥ 90%; inhibition at 1 ppm [8]: ≥ 90%; inhibition at 1 ppm [9]: ≥ 90%; pest or weed control at 5 ppm (black shank in potatoes): ≥ 90%; pest or weed control at 5 ppm (bacterial blight in rice): ≥ 90%; pest or weed control at 5 ppm [13]: ≥ 90%
CCOCCOC(=O)c1cn(C2CC2)c2cc(SCC)c(F)cc2c1=O [Compound 397]	≥ 90%	≥ 90%	≥ 90%	≥ 90%	≥ 90%	≥ 90%	≥ 90%	≥ 90%	≥ 90%	≥ 90%	≥ 90%	safe for plant growth	≥ 90%	≥ 90%	≥ 90%	≥ 90%	≥ 90%	≥ 90%	≥ 90%	≥ 90%	inhibition at 1 ppm [2]: ≥ 90%; inhibition at 1 ppm [3]: ≥ 90%; inhibition at 1 ppm [4]: ≥ 90%; inhibition at 1 ppm [5]: ≥ 90%; inhibition at 1 ppm [6]: ≥ 90%; inhibition at 1 ppm [7]: ≥ 80%; inhibition at 1 ppm [8]: ≥ 90%; inhibition at 1 ppm [9]: ≥ 80%; pest or weed control at 5 ppm (black shank in potatoes): ≥ 90%; pest or weed control at 5 ppm (bacterial blight in rice): ≥ 90%; pest or weed control at 5 ppm [13]: ≥ 80%
CCOCOC(=O)c1cn(C2CC2)c2ccc(F)cc2c1=O [Compound 2]		≥ 90%	≥ 90%	≥ 90%	≥ 90%	≥ 90%	≥ 90%	≥ 90%	≥ 90%	≥ 90%	≥ 90%	safe for plant growth	≥ 90%	≥ 90%	≥ 90%	≥ 90%	≥ 90%	≥ 90%	≥ 90%	≥ 90%	
O=C(OCCO)c1cn(C2CC2)c2ccc(Cl)cc2c1=O [Compound 44]	≥ 80%	≥ 90%	≥ 90%	≥ 90%	≥ 90%	≥ 90%	≥ 90%	≥ 90%	≥ 90%	≥ 90%	≥ 90%	safe for plant growth	≥ 90%	≥ 90%	≥ 90%	≥ 90%	≥ 90%	≥ 90%	≥ 90%	≥ 90%	inhibition at 1 ppm [2]: ≥ 80%; inhibition at 1 ppm [3]: ≥ 80%; inhibition at 1 ppm [4]: ≥ 80%; inhibition at 1 ppm [5]: ≥ 80%; inhibition at 1 ppm [6]: ≥ 80%; inhibition at 1 ppm [7]: ≥ 80%; inhibition at 1 ppm [8]: ≥ 80%; inhibition at 1 ppm [9]: ≥ 80%; pest or weed control at 5 ppm (black shank in potatoes): ≥ 80%; pest or weed control at 5 ppm (bacterial blight in rice): ≥ 80%; pest or weed control at 5 ppm [13]: ≥ 80%
CCOCOC(=O)c1cn(C2CC2)c2cc(OCC)c(F)cc2c1=O [Compound 312]	≥ 90%	≥ 90%	≥ 90%	≥ 90%	≥ 90%	≥ 90%	≥ 90%	≥ 90%	≥ 90%	≥ 90%	≥ 90%	safe for plant growth	≥ 90%	≥ 90%	≥ 90%	≥ 90%	≥ 90%	≥ 90%	≥ 90%	≥ 90%	inhibition at 1 ppm [2]: ≥ 90%; inhibition at 1 ppm [3]: ≥ 90%; inhibition at 1 ppm [4]: ≥ 90%; inhibition at 1 ppm [5]: ≥ 80%; inhibition at 1 ppm [6]: ≥ 90%; inhibition at 1 ppm [7]: ≥ 90%; inhibition at 1 ppm [8]: ≥ 90%; inhibition at 1 ppm [9]: ≥ 90%; pest or weed control at 5 ppm (black shank in potatoes): ≥ 90%; pest or weed control at 5 ppm (bacterial blight in rice): ≥ 80%; pest or weed control at 5 ppm [13]: ≥ 90%

Reference: patent publication US20250313533A1, “QUINOLINE CARBOXYLIC ACID ESTER COMPOUND AND PREPARATION METHOD AND USE THEREOF” (priority 2019, published 2025)
